Laboratory results from paper PMC10673250, “Exploring Alkyl Ester Salts of L-Amino Acid Derivatives of Ibuprofen: Physicochemical Characterization and Transdermal Potential” (Molecules, 2023).
In brackets after ≈: the same amount, converted by molar mass. Several values for one entry are separate records, joined by “and”; a condition that tells them apart may be missing. Equal values may be shown once. Where a name gives a salt, the structure may show the parent alone. Read-outs that look alike come from different tables or passages of the source.

Columns and labels:
[1] = Partition coefficient n-octanol/water (shake-flask, HPLC); assay type: physicochemical; conditions: 25 °C
Description: For L-glutamic acid alkyl ester ibuprofenates, the partition coefficient was determined using n-octanol/water extraction. For this purpose, 10 mg of the substance, weighed with an accuracy of 0.01 mg, was mixed with 5 cm^3 of water saturated with n-octanol and 5 cm^3 of n-octanol saturated with water. The mixture was stirred vigorously at 25 °C for 3 h and then centrifuged at 7500 rpm·min^−1 at 25 °C for 10 min to separate the phases. The phases were then separated. The concentration of the compound was determined in the aqueous layer using the HPLC method (standard curve method).
The partition coefficient log P was calculated based on Equation (3):(3) logP=logcoct−logcw where: • cw and coct are the concentrations (mg·dm^−3) of the solute in the aqueous and octanol layers.
The concentration of the compound dissolved in octanol was calculated from Equation (4):(4) coct=c0−cw where: • c0 is the concentration of the compound calculated based on sample weights prepared for analysis.
The concentration of the substance in the aqueous layer was determined using the SHIMADZU Nexera-i LC-2040C 3D High Plus high-performance liquid chromatography method with a DAD/FLD detector. A mixture of 50% acetonitrile and 50% water was used as the moving fluid under isocratic conditions at a 1 cm^3·min^−1 flow rate. A Kinetex® 2.6 µm F5 100 Å column heated to 35 °C with dimensions of 150 × 4.6 mm^2 from Phenomenex was used. The spectra were recorded at a wavelength of 210 nm. The injection volume for these samples was 50 mm^3. Each measurement was performed three times, and the results were averaged. The concentration of ibuprofen and its salts was calculated from peak area measurements using the calibration curve method (Figure 8). The results were analyzed using LabSolutions/LC Solution System.

[2] = Solubility in water (saturated solutions, HPLC); assay type: physicochemical; conditions: water at 25 °C
Description: Water solubility was determined by obtaining saturated solutions of the obtained ibuprofenates. For this purpose, the appropriate amount of ibuprofen salt was weighed in a vial, poured with deionized water, and stirred vigorously on a magnetic stirrer at 25 °C for 24 h. After this time, the mixture was filtered using a syringe filter made of MCE (mixed cellulose esters) with a pore diameter 0.45 µm. Then, the filtrate was diluted one hundred times with acetonitrile: water solution (1:1). The concentration of the compound was determined by the HPLC method described in Section 3.2.9.

[3] = Accumulation in the skin after the permeation test, in vitro; assay type: in vitro ADME, pig; conditions: after 24 h permeation; for accumulation in pig skin: mean ± SD, n = 3
Description: After completing the permeation test, the skin was removed from the Franz chamber, then washed with 0.5% sodium lauryl sulfate solution and dried with a paper towel. After being thoroughly air-dried, the leather was cut into pieces and extracted with 2 cm^3 of methanol for 24 h at 4 °C. Then, the samples were homogenized using a homogenizer (IKA®T18 digital ULTRA TURRAX, Staufen, Germany) for 3 min and centrifuged at 3500 rpm·min^−1 for 5 min. After centrifugation, the solution was analyzed by HPLC. The accumulation of IBU and its salts in pig skin was calculated by dividing the amount of substance remaining in the samples by the weight of the skin sample and it was expressed as the weight of IBU per gram of skin (µg IBU·g^−1).

[4] = pig skin, concentration 0.01 g·cm^−3; cited from earlier work
[5] = Permeability of the active substance through pig skin, Franz diffusion chambers, in vitro; conditions: for Jss, steady-state flux: 1% IBU in 70% ethanol, 37 °C; for Jss, steady-state flux / Q%24h, the percentage of the applied dose / LT, lag time / CMP (cumulative permeation mass): n = 3; for Q%24h, the percentage of the applied dose / CMP (cumulative permeation mass): 24 h
Description: Tests for the penetration of the active substance through pig skin were performed using Franz diffusion chambers (Phoenix DB-6, ABL&E-JASCO, Vienna, Austria) with diffusion areas of 1 cm^2 according to the modified method [15].
Pig skin obtained from the belly was purchased from a local slaughterhouse. The outer layer, 0.5 mm thick, was then removed using a dermatome and cut into 2 cm × 2 cm pieces. Before use in the study, the skin was soaked in buffered saline (PBS) solution at pH 7.4.
Skin impedance assessment was performed using an LCR meter 4080 (Voltcraft LCR 4080, Conrad Electronic, Hirschau, Germany), which was operated in parallel mode at an alternating frequency of 120 Hz (error for kΩ values < 0.5%). The measurements were made by placing the tips of the measurement probes in the donor and acceptor chambers, separated by a skin sample. Both chambers were filled with PBS buffer pH 7.4. Skin samples with an impedance > 3 kΩ were used for testing, which corresponds to the electrical resistance of human skin [15, 18].
The acceptor chamber with a capacity of 10 cm^3 was filled with PBS solution (pH 7.4). A total of 1 cm^3 of a solution of ibuprofen or L-amino acid alkyl ester ibuprofenate with a concentration of 1% based on the active substance (ibuprofen) in 70% ethanol was placed in the acceptor chamber.
The experiment was conducted for 24 h at 37 °C. After 0.5 h, 1 h, 2 h, 3 h, 4 h, 5 h, 8 h, and 24 h from the start of the permeation experiment, 0.5 cm^3 samples of the acceptor fluid were taken, respectively, and refilled with fresh PBS solution. The content of ibuprofen or its salts in the acceptor liquid was determined by HPLC. Based on this concentration, the cumulative mass expressed as ibuprofen was calculated (µg IBU·cm^−2) [3, 19, 20, 21, 22].
The constant flow coefficient (in µg IBU·cm^−2·h^−1) through the pig skin into the acceptor fluid was determined as the slope of the plot of accumulated mass in the acceptor fluid as a function of time.
Steady-state flow was estimated from the slope of the linear part of the plot of accumulated mass in the acceptor phase over time. The lag time (LT) was determined based on the x-intercept of the linear part of the graph of accumulated mass in the acceptor phase over time. It was then used to calculate the permeability coefficient Kp using Equation (6):(6) Kp=Jss/C where: • C—concentration in the donor phase (µg·cm^−3).
The diffusion coefficient (D) was calculated based on Equation (7):(7) D=I^2/6·LT where: • I—diffusion path, skin thickness (mm).
The skin partition coefficient (Km) was calculated based on Equation (8):(8) Km=Kp·I/D

[6] = administered on an empty stomach, 71 healthy adults; cited from earlier work
[7] = Thermogravimetric analysis (thermal stability); assay type: physicochemical
Description: Thermal stability was assessed using thermogravimetric studies performed on a […]1 Libra thermomicrobalance (Selb, Germany). The test was carried out in an oxidizing environment, with the flow of nitrogen (protective gas): 10 cm^3·min^-1, air: 25 cm^3·min^-1 in the temperature range from 25 to 1000 °C. Samples weighing approximately 5 mg were heated at 10 °C·min^-1. The decomposition onset temperature (Tonset) was calculated using the intersection of the tangents of the TG curve. The fastest decomposition temperatures (Tmax) were calculated using the first TG curve (DTG curve) derivative.

[8] = in terms of the active substance (ibuprofen)
[9] = TG, oxidizing environment, 10 °C·min^−1

SMILES | Solubility in Water [2, 8] [g IBU·dm^−3] | Jss, steady-state flux [5] | Q%24h, the percentage of the applied dose [5] [%] | Tonset, the onset temperature of the thermal degradation [7, 9] [°C] | log P [1] | Solubility in Water ([2]; as compound) [g·dm^−3] | Tonset, the onset temperature of the thermal degradation [7] [°C] | CMP (cumulative permeation mass) [5] [g IBU·dm^−3] | also measured
CC(C)Cc1ccc(C(C)C(=O)O)cc1 (racemic) [IBU, (RS)-2-[4-(2-methylpropyl)phenyl]propionic acid, reference compound] | 0.075 ± 0.001 | 26.539 ± 0.320 µg IBU·cm^−2·h^−1 | 0.302 ± 0.038 | – | – | – | – | – | logP [1]: 3.37; solubility at 24 h ([2]; deionized water, as compound): 75 ± 1 µg/mL (≈ 364 µM); accumulation in pig skin [3]: 1057.468 ± 200.589 µg IBU·g^−1 pig skin; skin penetration rate [4]: 6%; LT, lag time [5]: 0.153 ± 0.029 h; D·10^4, diffusion coefficient ([5]; n = 3, value is D·10^4): 27.926 ± 5.802 cm^2·h^−1
CC(C)Cc1ccc(C(C)C(=O)[O-])cc1.[Na+] (stereo not drawn) [IBUNa] | – | – | – | – | – | – | – | – | Cmax higher compared to rac-IBU [6]: approximately 30%
CC(C)Cc1ccc(C(C)C(=O)O)cc1.CCCCOC(=O)C(N)CCC(=O)O (stereo not drawn) [[Glu(OBu)][IBU]] | 0.109 ± 0.004 | 32.282 ± 7.809 µg IBU·cm^−2·h^−1 | 0.452 ± 0.026 | – | 3.000 ± 0.010 | 0.217 ± 0.007 | 206.8 | 0.109 ± 0.004 | accumulated mass relative to ibuprofen [3]: approximately 90%; accumulation in pig skin [3]: 931.823 ± 93.449 µg IBU·g^−1 pig skin; LT, lag time [5]: 0.102 ± 0.069 h
CC(C)Cc1ccc(C(C)C(=O)O)cc1.CCCCCOC(=O)C(N)CCC(=O)O (stereo not drawn) [[Glu(OPent)][IBU]] | 0.101 ± 0.012 | 57.098 µg IBU·cm^−2·h^−1 and 57.098 ± 29.761 µg IBU·cm^−2·h^−1 | 0.582 ± 0.047 | – | 2.459 ± 0.002 | 0.208 ± 0.024 | 206.9 | 0.101 ± 0.012 | accumulation in pig skin [3]: 625.895 ± 87.275 µg IBU·g^−1 pig skin; permeation rate relative to ibuprofen ([5]; within the first two hours): twice as high as ibuprofen
CC(C)Cc1ccc(C(C)C(=O)O)cc1.CCCOC(=O)C(N)CCC(=O)O (stereo not drawn) [[Glu(OPr)][IBU]] | 0.120 ± 0.004 | 26.451 ± 2.253 µg IBU·cm^−2·h^−1 | 0.506 ± 0.008 | – | 2.380 ± 0.003 | 0.230 ± 0.007 | 199.7 | 0.120 ± 0.004 | –
CC(C)Cc1ccc(C(C)C(=O)O)cc1.CC(C)OC(=O)C(N)CCC(=O)O (stereo not drawn) [[Glu(OiPr)][IBU]] | 0.203 ± 0.006 | 23.298 ± 3.459 µg IBU·cm^−2·h^−1 | 0.373 ± 0.0175 | – | 2.860 ± 0.007 | 0.390 ± 0.011 | 222.9 | – | solubility relative to ibuprofen (standard) ([2]; per active mass of ibuprofen): approximately three times higher; penetrated better than ibuprofen ([5]; versus ibuprofen): ~40%
CC(C)Cc1ccc(C(C)C(=O)O)cc1.CCC(C)OC(=O)C(N)CCC(=O)O (stereo not drawn) [[Glu(Osec-Bu)][IBU]] | 0.093 ± 0.012 | 22.296 ± 1.398 µg IBU·cm^−2·h^−1 | 0.456 ± 0.048 | – | 3.191 ± 0.007 | 0.185 ± 0.024 | 204.2 | 0.093 ± 0.012 | –

More lines, main results first:

Solubility in Water [2, 8] [g IBU·dm^−3] | Jss, steady-state flux [5] | Q%24h, the percentage of the applied dose [5] [%] | Tonset, the onset temperature of the thermal degradation [7, 9] [°C] | log P [1] | Solubility in Water ([2]; as compound) [g·dm^−3] | Tonset, the onset temperature of the thermal degradation [7] [°C] | CMP (cumulative permeation mass) [5] [g IBU·dm^−3] | SMILES | also measured
– | – | – | 172.8 | – | – | – | – | CCCCOC(=O)CCC(N)C(=O)OCCCC (stereo not drawn) [[Glu(OBu)2][HCl]] | –
– | – | – | 168.3 | – | – | – | – | CCOC(=O)CCC(N)C(=O)OCC (stereo not drawn) [[Glu(OEt)2][HCl]] | –
0.100 ± 0.001 | 30.855 ± 6.617 µg IBU·cm^−2·h^−1 | 0.566 ± 0.005 | – | 2.37 and 2.374 ± 0.001 | 0.185 ± 0.003 | 194.2 | 0.100 ± 0.001 | CC(C)Cc1ccc(C(C)C(=O)O)cc1.CCOC(=O)C(N)CCC(=O)O (stereo not drawn) [[Glu(OEt)][IBU]] | permeation rate difference compared to [Glu(OPent)][IBU] ([5]; after 24 h): approximately 0.5 μg∙h^−1; LT, lag time [5]: 0.029 ± 0.050 h
– | – | – | 169.5 | – | – | – | – | CCCCCOC(=O)CCC(N)C(=O)OCCCCC (stereo not drawn) [[Glu(OPent)2][HCl]] | –
– | – | – | 174.4 | – | – | – | – | CC(C)OC(=O)CCC(N)C(=O)OC(C)C (stereo not drawn) [[Glu(OiPr)2][HCl]] | –
– | – | – | 170.5 | – | – | – | – | CCCOC(=O)CCC(N)C(=O)OCCC (stereo not drawn) [[Glu(Opr)2][HCl]] | –
– | – | – | 181.5 | – | – | – | – | CCC(C)OC(=O)CCC(N)C(=O)OC(C)CC (stereo not drawn) [[Glu(Osec-Bu)2][HCl]] | –
